Test results as given in ChEMBL document CHEMBL1649136, “Plasmodium falciparum pfmdr1 amplification, mefloquine resistance, and parasite fitness” (Antimicrob Agents Chemother, 2009).

System: Plasmodium falciparum
Test: Antimicrobial activity against Plasmodium falciparum isolate TM3036 expressing 1 copies of pfmdr1 gene

## Cl.OC(c1cc(C(F)(F)F)nc2c(C(F)(F)F)cccc12)C1CCCCN1 (stereo unspecified) [MEFLOQUINE HYDROCHLORIDE]
  IC50: 1.47 ng/mL
